Source: US10611740B2, “Aryl dihydro-2H-benzo[b][1,4]oxazine sulfonamide and related compounds for use as agonists of RORγ and the treatment of disease” (Lycera Corporation, priority 2015, dated 2020)

Tests used:
[1] = target: T1, RORγ-LBD (Homo sapiens, UniProt P51449); experiment: RORγ-Ligand Binding Domain (LBD) TR-FRET Assay; type: biochemical;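 for TR-FRET Assay Max Response: 665/615 nm ratio relative to signal without ursolic acid or compound set at 100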
T1 construct: made in house; host or cells: SF9 cells (baculovirus)
T1 sequence (P51449 269-508 limits assumed): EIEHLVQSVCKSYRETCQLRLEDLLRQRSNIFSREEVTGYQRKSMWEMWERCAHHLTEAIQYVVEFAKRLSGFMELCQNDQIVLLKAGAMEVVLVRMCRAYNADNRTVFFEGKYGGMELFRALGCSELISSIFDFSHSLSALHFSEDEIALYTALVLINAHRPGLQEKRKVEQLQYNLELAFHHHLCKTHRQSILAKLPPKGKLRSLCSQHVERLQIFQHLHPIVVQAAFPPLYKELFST
Method in brief: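 TR-FRET read-out using a biotin-tagged SRC1 coactivator LXXLL peptide (200 nM final), with the antagonist ursolic acid present at 2 μM final. Receptor is His-tagged LBD expressed in SF9 cells, ~3 nM final in pH 7.0 Tris/KCl/EDTA/DTT/BSA buffer; compounds in 1% DMSO final.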

[2] = target: T2, Gal4-RORγ-LBD (Homo sapiens, UniProt P51449); experiment: Gal4-RORγ Luciferase Reporter Assay in HEK-293T Cells; type: cell-based; conditions: HEK-293 cells
T2 construct: expressed in transfected cells; host or cells: HEK-293 cells (pcDNA3.1neo plasmid)
T2 sequence (P51449 269-508 limits assumed): T1 sequence (P51449 269-508 limits assumed)
Method in brief: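 Luminescence read-out (One-Glo, 10 min RT) after overnight compound exposure at 37 °C in HEK-293 cells carrying Gal4-RORγ-LBD plus a Gal4-luciferase reporter, in the presence of 2 μM ursolic acid. Max Response is the upper plateau from a 4-parameter logistic fit, normalized to untreated signal = 100.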

[3] = luciferase reporter, with 2 μM ursolic acid

Structure (SMILES) | EC50 [1] | EC50 [2, 3] | EC50 ([2]; 2 μM ursolic acid) | TR-FRET Assay Max Response [1] | Gal4-RORγ Assay Max Response [2, 3] | Gal4-RORγ Assay Max Response ([2]; 2 μM ursolic acid)
COc1cc(S(=O)(=O)N2C[C@H](CCC(=O)O)Oc3ccc(-c4cccc(Cl)c4)cc32)ccc1F [Compound 5, (S)-3-(6-(3-chlorophenyl)-4-((4-fluoro-3-methoxyphenyl)sulfonyl)-3,4-dihydro-2H-benzo[b][1,4]oxazin-2-yl)propanoic acid] | < 500 nM | 500 to 5000 nM | – | *** (The symbol “***” indicates a value in the range of greater than 150 to 200) | ** (The symbol “**” indicates a value in the range of greater than 90 to 150) | –
O=C(O)CC[C@H]1CN(S(=O)(=O)c2cccc(C(F)(F)F)c2)c2cc(-c3cccc(C(F)(F)F)c3F)ccc2O1 [Compound 2N, (S)-3-(6-(2-fluoro-3-(trifluoromethyl)phenyl)-4-((3-(trifluoromethyl)phenyl)-sulfonyl)-3,4-dihydro-2H-benzo[b][1,4]oxazin-2-yl)propanoic acid] | < 500 nM | < 500 nM | – | *** (The symbol “***” indicates a value in the range of greater than 150 to 200) | *** (The symbol “***” indicates a value in the range of greater than 150 to 200) | –
CC(C)c1ccccc1-c1ccc2c(c1)N(S(=O)(=O)c1cccc(C(F)(F)F)c1)C[C@H](CCC(=O)O)O2 [Compound 2AJ, (S)-3-(6-(2-isopropylphenyl)-4-((3-(trifluoromethyl)phenyl)-sulfonyl)-3,4-dihydro-2H-benzo[b][1,4]oxazin-2-yl)propanoic acid] | < 500 nM | < 500 nM | – | **** (The symbol “****” indicates a value greater than 200) | ** (The symbol “**” indicates a value in the range of greater than 90 to 150) | –
CC(C)(C)OC(=O)NCC[C@H]1CN(S(=O)(=O)c2cccc(C(F)(F)F)c2)c2cc(-c3cc(F)ccc3F)ccc2O1 [Compound 12, tert-butyl (S)-(2-(6-(2,5-difluorophenyl)-4-((3-(trifluoromethyl)phenyl)sulfonyl)-3,4-dihydro-2H-benzo[b][1,4]oxazin-2-yl)ethyl)carbamate] | < 500 nM | < 500 nM | – | **** (The symbol “****” indicates a value greater than 200) | * (The symbol “*” indicates a value in the range of 25 to 90) | –
Cc1cccc(-c2ccc3c(c2)N(S(=O)(=O)c2cccc(C(F)(F)F)c2)C[C@H](CCC(=O)O)O3)n1 [Compound 4S, (S)-3-(6-(6-methylpyridin-2-yl)-4-((3-(trifluoromethyl)phenyl)-sulfonyl)-3,4-dihydro-2H-benzo[b][1,4]oxazin-2-yl)propanoic acid] | < 500 nM | 500 to 5000 nM | – | **** (The symbol “****” indicates a value greater than 200) | **** (The symbol “****” indicates a value greater than 200) | –
C[C@@](O)(CC[C@H]1CN(S(=O)(=O)c2cccc(C(F)(F)F)c2)c2cc(-c3cc(F)ccc3F)ccc2O1)C(=O)O [Compound 40, (R)-4-((S)-6-(2,5-difluorophenyl)-4-((3-(trifluoromethyl)phenyl)sulfonyl)-3,4-dihydro-2H-benzo[b][1,4]oxazin-2-yl)-2-hydroxy-2-methylbutanoic acid] | < 500 nM | 500 to 5000 nM | – | **** (The symbol “****” indicates a value greater than 200) | ** (The symbol “**” indicates a value in the range of greater than 90 to 150) | –
Cc1ccc(Cl)c(-c2ccc3c(c2)N(S(=O)(=O)c2cccc(C(F)(F)F)c2)C[C@H](CCC(=O)O)O3)c1 [Compound 2BK, (S)-3-(6-(2-chloro-5-methyl-phenyl)-4-((3-(trifluoromethyl)-phenyl)sulfonyl)-3,4-dihydro-2H-benzo[b][1,4]oxazin-2-yl)propanoic acid] | < 500 nM | < 500 nM | – | *** (The symbol “***” indicates a value in the range of greater than 150 to 200) | ** (The symbol “**” indicates a value in the range of greater than 90 to 150) | –
O=C(O)CC[C@H]1CN(S(=O)(=O)c2cccc(C(F)(F)F)c2)c2cc(-c3cccc(F)c3F)ccc2O1 [Compound 1, (S)-3-(6-(2,3-difluorophenyl)-4-((3-(trifluoromethyl)phenyl)sulfonyl)-3,4-dihydro-2H-benzo[b][1,4]oxazin-2-yl)propanoic acid] | < 500 nM | < 500 nM | – | *** (The symbol “***” indicates a value in the range of greater than 150 to 200) | *** (The symbol “***” indicates a value in the range of greater than 150 to 200) | –
CC(C)c1cccc(-c2ccc3c(c2)N(S(=O)(=O)c2cccc(C(F)(F)F)c2)C[C@H](CCC(=O)O)O3)c1 [Compound 2Y, (S)-3-(6-(3-isopropylphenyl)-4-((3-(trifluoromethyl)phenyl)-sulfonyl)-3,4-dihydro-2H-benzo[b][1,4]oxazin-2-yl)propanoic acid] | < 500 nM | < 500 nM | – | *** (The symbol “***” indicates a value in the range of greater than 150 to 200) | ** (The symbol “**” indicates a value in the range of greater than 90 to 150) | –

Now from value to molecule, other results behind:

EC50 [1] | EC50 [2, 3] | EC50 ([2]; 2 μM ursolic acid) | Structure (SMILES) | TR-FRET Assay Max Response [1] | Gal4-RORγ Assay Max Response [2, 3] | Gal4-RORγ Assay Max Response ([2]; 2 μM ursolic acid)
< 500 nM | – | < 500 nM | CC(C)(C[C@H]1CN(S(=O)(=O)c2cccc(C(F)(F)F)c2)c2cc(-c3cc(OC(F)F)ccc3F)ccc2O1)C(=O)O [Compound 32BI, (S)-3-(6-(5-(difluoromethoxy)-2-fluorophenyl)-4-((3-(trifluoromethyl)phenyl)sulfonyl)-3,4-dihydro-2H-benzo[b][1,4]oxazin-2-yl)-2,2-dimethylpropanoic acid] | *** (The symbol “***” indicates a value in the range of greater than 150 to 200) | – | ** (The symbol “**” indicates a value in the range of greater than 90 to 150)
< 500 nM | 500 to 5000 nM | – | Cc1c(F)cc(-c2ccc3c(c2)N(S(=O)(=O)c2cccc(C(F)(F)F)c2)C[C@H](CC(C)C(=O)O)O3)c(Cl)c1F (stereo partly drawn) [Compound 46A, 3-((S)-6-(2-chloro-3,5-difluoro-4-methylphenyl)-4-((3-(trifluoro-methyl)phenyl)sulfonyl)-3,4-dihydro-2H-benzo[b][1,4]oxazin-2-yl)-2-methylpropanoic acid] | *** (The symbol “***” indicates a value in the range of greater than 150 to 200) | ** (The symbol “**” indicates a value in the range of greater than 90 to 150) | –
< 500 nM | – | 500 to 5000 nM | CC(=O)NC(C)(C)C[C@@H]1CN(S(=O)(=O)c2cccc(C(F)(F)F)c2)c2cc(-c3cc(F)ccc3F)ccc2O1 [Compound 30DC, (R)-N-(1-(6-(2,5-difluoro-phenyl)-4-((3-(trifluoromethyl)-phenyl)sulfonyl)-3,4-dihydro-2H-benzo[b][1,4]oxazin-2-yl)-2-methylpropan-2-yl)acetamide] | *** (The symbol “***” indicates a value in the range of greater than 150 to 200) | – | * (The symbol “*” indicates a value in the range of 25 to 90)
< 500 nM | – | < 500 nM | CC(C)(C[C@H]1CN(S(=O)(=O)c2cccc(C(F)(F)F)c2)c2cc(-c3cccc(C(F)(F)F)c3Cl)ccc2O1)C(=O)O [Compound 32AA, (S)-3-(6-(2-chloro-3-(trifluoromethyl)phenyl)-4-((3-(trifluoromethyl)phenyl)sulfonyl)-3,4-dihydro-2H-benzo[b][1,4]-oxazin-2-yl)-2,2-dimethyl-propanoic acid] | **** (The symbol “****” indicates a value greater than 200) | – | ** (The symbol “**” indicates a value in the range of greater than 90 to 150)
< 500 nM | – | < 500 nM | CC(C)(C[C@H]1CN(S(=O)(=O)c2cccc(C(F)(F)F)c2)c2cc(-c3cc(F)cc(F)c3F)ccc2O1)C(=O)O [Compound 32X, (S)-2,2-dimethyl-3-(4-((3-(trifluoromethyl)phenyl)sulfonyl)-6-(2,3,5-trifluorophenyl)-3,4-dihydro-2H-benzo[b][1,4]oxazin-2-yl)propanoic acid] | *** (The symbol “***” indicates a value in the range of greater than 150 to 200) | – | ** (The symbol “**” indicates a value in the range of greater than 90 to 150)
< 500 nM | < 500 nM | – | Cn1ccc(C(=O)NC[C@H]2CN(S(=O)(=O)c3cccc(C(F)(F)F)c3)c3cc(-c4cc(F)ccc4F)ccc3O2)n1 [Compound 30AI, (S)-N-((6-(2,5-difluorophenyl)-4-((3-(trifluoromethyl)phenyl)-sulfonyl)-3,4-dihydro-2H-benzo[b][1,4]oxazin-2-yl)methyl)-1-methyl-1H-pyrazole-3-carboxamide] | *** (The symbol “***” indicates a value in the range of greater than 150 to 200) | ** (The symbol “**” indicates a value in the range of greater than 90 to 150) | –
